According to patent publication US20230148450A9, “BICYCLIC HETEROARYL COMPOUNDS AND USES THEREOF” (Revolution Medicines, Inc., priority 2019, published 2023):
Like-named read-outs stand apart in the source and are kept apart here.

Columns and labels:
[1] = target: T1, SOS1 catalytic domain (residues 564-1049) (Homo sapiens, UniProt Q07889); assay: Binding affinity to SOS1 using Surface Plasmon Resonance (SPR); conditions: avi-tagged SOS1 catalytic domain immobilized on sensor chip; read-out: SOS1 SPR Equilibrium Kd
T1 construct: SOS1 catalytic domain (residues 564-1049) immobilized on a sensor chip
T1 sequence (Q07889 564-1049): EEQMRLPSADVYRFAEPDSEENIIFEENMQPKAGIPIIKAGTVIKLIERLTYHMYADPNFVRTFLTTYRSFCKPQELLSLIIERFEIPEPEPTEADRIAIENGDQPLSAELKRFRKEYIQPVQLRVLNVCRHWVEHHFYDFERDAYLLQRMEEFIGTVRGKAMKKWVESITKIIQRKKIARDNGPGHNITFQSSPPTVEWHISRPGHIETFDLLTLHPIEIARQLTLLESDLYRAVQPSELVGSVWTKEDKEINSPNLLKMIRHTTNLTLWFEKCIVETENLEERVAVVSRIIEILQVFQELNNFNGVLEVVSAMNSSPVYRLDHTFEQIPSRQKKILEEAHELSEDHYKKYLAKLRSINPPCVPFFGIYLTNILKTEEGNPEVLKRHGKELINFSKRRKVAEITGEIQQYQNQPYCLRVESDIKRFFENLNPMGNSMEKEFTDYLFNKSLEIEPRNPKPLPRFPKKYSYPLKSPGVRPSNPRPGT
Excerpt: Potency Assay: Measurement of the Binding Affinity of Compounds of the Invention to SOS! using Surface Plasmon Resonance (SPR)
The purpose of the SPR assay was to measure the direct binding of compounds to SOS1 catalytic domain (residues 564-1049) immobilized on a sensor chip. Data was reported as equilibrium dissociation constant (Kd) values.
Using a GE Biacore 8K SPR instrument, avi-tagged SOS1 catalytic domain protein was immobilized to a level of approximately 6000 response units (RU) on a streptavidin-coated SPR sensor chip in assay buffer containing 0.01 M HEPES, 0.15 M NaCl and 0.05% v/v Surfactant P20. In assay buffer containing 2% DMSO, concentration series of test compounds were generated spanning 5 μM to 4.9 nM over ten 2-fold dilutions. For each test compound, a separate 0 μM sample was generated for use during subsequent double reference subtraction. Serially for each test compound, individual dilution samples were flowed over the immobilized SOS1 protein at a flow rate of 50 μL/minute to monitor the association with SOS1. Dissociation of bound test compound from the SOS1 protein was immediately monitored by flowing assay buffer over the sensor surface and monitoring the decrease in binding signal back to the baseline level seen in the absence of compound. This was repeated for all compound dilutions in each series. The binding level response for each test compound concentration was noted immediately prior to the end of the association phase, and a secondary plot generated showing binding response level versus test compound concentration generated for each compound dilution series.

[2] = tested on: cellular pERK in PC-9 cells (EGFR Ex19Del); assay: Potency Assay: pERK; assay type: cell-based; conditions: Homo sapiens, read-out: SOS1 pERK IC50
Excerpt: The purpose of this assay is to measure the ability of test compounds to inhibit SOS1 function in cells. SOS1 activates RAS proteins by catalyzing the conversion of […] to […] in response to receptor tyrosine kinase activation. Activation of RAS induces a sequence of cellular signaling events that results in increased phosphorylation of ERK at […] (pERK). The procedure described below measures the level of cellular pERK in response to test compounds in PC-9 cells (EGFR Ex[…]). PC-9 cells were grown and maintained using media and procedures recommended by the ATCC. On the day prior to compound addition, cells were plated in 384-well cell culture plates (40 μL/well) and grown overnight in a 37° C., 5% CO2 incubator. Test compounds were prepared in 10, 3-fold dilutions in DMSO, with a top concentration of 10 mM. On the day of the assay, 40 nL of test compound was added to each well of cell culture plate using an Echo550 liquid handler (LabCyte). Concentrations of test compound were tested in duplicate with highest test concentration being 10 μM. After compound addition, cells were incubated for 1 hour at 37° C., 5% CO2. Following incubation, culture medium was removed and cells were washed once with phosphate buffered saline. Cellular pERK level was determined using the AlphaLISA SureFire Ultra p-ERK1/2 Assay Kit (PerkinElmer). Cells were lysed in 25 μL lysis buffer, with shaking at 600 RPM at room temperature for 15 minutes. Lysate (10 μL) was transferred to a 384-well Opti-plate (PerkinElmer) and 5 μL acceptor mix was added. The plate was centrifuged at 1000 RPM for 1 minute, and incubated in the dark for 2 hours. Following this incubation, 5 μL of donor mix was added, the plate was sealed and centrifuged at 1000 RPM for 1 minute, and the mixture was incubated for 2 hours at room temperature. Signal was read on an Envision plate reader (PerkinElmer) using standard AlphaLISA settings. Analysis of raw data was carried out in Excel (Microsoft) and Prism (GraphPad). Signal was plotted vs. the decadal logarithm of compound concentration, and IC50 was determined by fitting a 4-parameter sigmoidal concentration response model.

[3] = target: T2, SOS1 nucleotide exchange of KRAS (catalytic domain of SOS1, residues 564-1049; wild-type KRAS) (Homo sapiens, UniProt Q07889); assay: Mode of Action Assay: Inhibition of SOS1 Nucleotide Exchange Activity (TR-FRET); assay type: biochemical; conditions: TR-FRET signal
T2 construct: tagless catalytic domain of SOS1 (residues 564-1049)
T2 sequence (Q07889 564-1049): T1 sequence (Q07889 564-1049)
Description: The purpose of this assay was to characterize the inhibitory activity of compounds on SOS1 nucleotide exchange of KRAS. Data was reported as IC50 values based on the TR-FRET signal.
Note—the following protocol describes a procedure for monitoring the inhibition of SOS1 nucleotide exchange activity of wild-type KRAS in response to a compound of the invention. Other KRAS mutants and RAS isoforms maybe employed.
In assay buffer containing 20 mM HEPES, pH 7.5, 150 mM NaCl, 5 mM MgCl2, 0.05% Tween-20, 0.1% BSA, 1 mM DTT, concentration series of test compounds were generated spanning 100 μM to 1.7 nM over eleven 3-fold serial dilutions in a 384-well assay plate at a volume of 20 μL. The purified tagless catalytic domain of SOS1 (residues 564-1049) was first diluted in assay buffer at a concentration of 100 nM, and then 20 μL of the SOS1 containing solution was directly dispensed into compound plates. The SOS1/compound mixture was incubated at room temperature with constant mixing on an orbital shaker for 20 minutes to allow the reaction to reach equilibrium. A KRAS mixture was prepared by diluting 66.7 nM avi-tagged KRAS (residue 1-169), 3.33 nM Streptavidin-Tb and 333 nM EDA-GTP-DY-647P1 in assay buffer. This mixture was prepared immediately before addition to the SOS1/compound mixture to prevent intrinsic nucleotide exchange. Then 5 μL of the pre-incubated SOS1/compound mixture and 7.5 μL of the KRAS mixture were added sequentially in a 384-well low volume black round bottom plate and incubated at room temperature with constant shaking for 30 minutes. Time-resolved fluorescence was measured on a PerkinElmer Envision plate reader. DMSO and 10 μM of compound (i) were used as negative and positive controls, respectively.
Three replicates were performed for each compound. Data were normalized by the following: (Positive control—Sample signal)/(Positive control—negative control)*100. The data were fit using a four-parameter logistic fit.

[4] = PC-9 cells (EGFR Ex19Del), 1 hour incubation, AlphaLISA p-ERK1/2

SMILES	Kd [1] [nM]	IC50 [2, 4] [nM]	IC50 [3] [nM]	IC50 ([2]; PC-9, 1 h) [nM]
CNCc1cc2c(N[C@H](C)c3cc(N)cc(C(F)(F)F)c3)nc(C)nn2c1 [Example 28, N-[(1R)-1-[3-amino-5-(trifluoromethyl)phenyl]ethyl]-2-methyl-6-(methylaminomethyl)pyrrolo[2,1-f][1,2,4]triazin-4-amine]	> 400	< 1000		
C[C@@H](Nc1nc(Cl)cn2cc(C(=O)N3CCOCC3)nc12)c1cc(N)cc(C(F)(F)F)c1 [Example 29, [8-[[(1R)-1-[3-amino-5-(trifluoromethyl)phenyl]ethyl]amino]-6-chloro-imidazo[1,2-a]pyrazin-2-yl]-morpholino-methanone]	> 400	> 1000	> 1000	
COc1cc2c(N[C@H](C)c3cc(N)cc(C(F)(F)F)c3)nc(C)nn2c1 [Example 30, N-[(1R)-1-[3-amino-5-(trifluoromethyl)phenyl]ethyl]-6-methoxy-2-methyl-pyrrolo[2,1-f]-[1,2,4]triazin-4-amine]	> 400	> 1000		
C[C@@H](Nc1ncnc2cc(C(=O)N3CCOCC3)sc12)c1cc(N)cc(C(F)(F)F)c1 [Example 31, [4-[[(1R)-1-[3-amino-5-(trifluoromethyl)phenyl]ethyl]amino]thieno[3,2-d]pyrimidin-6-yl]-morpholino-methanone]	≤ 400	> 1000	> 1000	
Cc1nc(N[C@H](C)c2cc(N)cc(C(F)(F)F)c2)c2cc(C(=O)N3CC(O)C3)cn2n1 [Example 33, [4-[[(1R)-1-[3-amino-5-(trifluoromethyl)phenyl]ethyl]amino]-2-methyl-pyrrolo[2,1-f][1,2,4]triazin-6-yl]-(3-hydroxyazetidin-1-yl)methanone]	> 400	< 1000	< 1000	
Cc1nc(N[C@H](C)c2cc(N)cc(C(F)(F)F)c2)c2cc(C3(O)CC(O)C3)cn2n1 (stereo partly drawn) [Example 35, (R)-1-(4-((1-(3-amino-5-(trifluoromethyl)phenyl)ethyl)amino)-2-methylpyrrolo[2,1-f][1,2,4]triazin-6-yl)cyclobutane-1,3-diol]	≤ 400	> 1000	> 1000	
C[C@@H](Nc1cc(Cl)nc2nc(C(=O)N3CCOCC3)cn12)c1cc(N)cc(C(F)(F)F)c1 [Example 48, [5-[[(1R)-1-[3-amino-5-(trifluoromethyl)phenyl]ethyl]amino]-7-chloro-imidazo[1,2-a]pyrimidin-2-yl]-morpholino-methanone]	> 400			< 1000
C[C@@H](Nc1ncnc2cc(C3=CCNCC3)sc12)c1cc(N)cc(C(F)(F)F)c1 [Example 49, N-[(1R)-1-[3-amino-5-(trifluoromethyl)phenyl]ethyl]-6-(1,2,3,6-tetrahydropyridin-4-yl)thieno[3,2-d]pyrimidin-4-amine]		> 1000	> 1000	
C[C@@H](Nc1nccc2sc(C3=CCNCC3)cc12)c1cc(N)cc(C(F)(F)F)c1 [Example 56, N-[(1R)-1-[3-amino-5-(trifluoromethyl)phenyl]ethyl]-2-(1,2,3,6-tetrahydropyridin-4-yl)thieno[3,2-c]pyridin-4-amine]		> 1000	> 1000	
Cc1cn2nc(C(=O)N3CCN(C)CC3)cc2c(N[C@H](C)c2cccc(C(F)(F)F)c2)n1 [Example 61]		> 1000	> 1000	
Cc1nc(N[C@H](C)c2cc(N)cc(C(F)(F)F)c2)c2cc([C@]3(O)CC[C@H](C(=O)N(C)C)CC3)cn2n1 [Example 66, 4-[4-[[(1R)-1-[3-amino-5-(trifluoromethyl)phenyl]ethyl]amino]-2-methyl-pyrrolo[2,1-f][1,2,4]triazin-6-yl]-4-hydroxy-N,N-dimethylcyclohexanecarboxamide]	≤ 400	> 1000		
C[C@@H](Nc1nc(Cl)nn2cc(C(=O)N3CCOCC3)cc12)c1cc(N)cc(C(F)(F)F)c1 [Example 68]		< 1000		
Cc1cn2nc(C(=O)N3CC4CCC(C3)N4C)cc2c(N[C@H](C)c2cc(N)cc(C(F)(F)F)c2)n1 [Example 78]		< 1000	< 1000	
C[C@@H](Nc1nc(Cl)nn2cc(C(=O)N3CCN(C)CC3)cc12)c1cc(N)cc(C(F)(F)F)c1 [Example 94, N-[(1R)-1-[3-amino-5-(trifluoromethyl)-phenyl]ethyl]-2-chloro-6-(4-methylpiperazine-1-carbonyl)pyrrolo[2,1-f][1,2,4]triazin-4-amine]		< 1000	< 1000	
C[C@@H](Nc1nc(Cl)nn2cc(C(=O)N3CCN(C)CC3)cc12)c1cccc(C(F)(F)F)c1 [Example 95]		> 1000	> 1000	
C[C@@H](Nc1nc(Cl)nn2cc(C(=O)N3CC4(COC4)C3)cc12)c1cccc(C(F)(F)F)c1 [Example 96]		< 1000	> 1000	
C[C@@H](Nc1nc(Cl)nn2cc(C(=O)N3CCN(C)CC3)cc12)c1cccc(C(F)F)c1F [Example 98]		< 1000	< 1000	
C[C@@H](Nc1nc(Cl)cn2cc(C(=O)N3CCOCC3)cc12)c1cc(N)cc(C(F)(F)F)c1 [Example 102, N-[(1R)-1-[3-amino-5-(trifluoromethyl)phenyl]ethyl]-3-chloro-7-(morpholine-4-carbonyl)pyrrolo [1,2-a]pyrazin-1-amine]		> 1000	> 1000	
